Assay results as given in US11278602B2, “Medicine for Covid-19 and treatment” (Therapeutica Borealis Oy, priority 2020, dated 2022).

Experiments:
[1] = components of the nasal spray; cited from earlier work
[2] = pKa / protonation state of weak base; assay type: physicochemical; conditions: per the Henderson-Hasselbalch equation
Text: Nicotine is also known to be a weak base, pH 8.5. It has been shown in earlier in vitro studies that it could inhibit receptor mediated endosytosis. Due to the fact that it is a weak base it could penetrate cell membrane especially at pH near its isoelectric point and thus it may also effect glycosylation at Golgi compartment.

Compound	solubility in water [1]	deprotonated at physiological pH [2]
CCN(CCO)CCCC(C)Nc1ccnc2cc(Cl)ccc12 (stereo not shown) [Hydroxychloroquine]	at least 200 mg/mL	
CCN(CC)CCCC(C)Nc1ccnc2cc(Cl)ccc12 (stereo not shown) [chloroquine]		about 10%
Aprotinin	> 10 mg/mL	
Ivermectin	50 mg/mL	
